Among the data in US4264765A, “Salts of erythromycin A esters” (priority 1980, dated 1981) are ED50 values, retold here.

Like-named read-outs stand apart in the source and are kept apart here.

In this test the test system is Staph, Aureus (Smith). The test is described as follows: standard test using mice infected with Staph, Aureus (Smith), subcutaneous treatment. Type of test: in vivo. The note with it: Staphylococcus aureus, sc, pH 7.4, read-out: CD 50, mice, subcutaneous, isotonic or pH 7.4 buffered aqueous solution. As to the method:
The above compounds were tested per their antibacterial uses in a standard test, using mice infected with Staph, Aureus (Smith). […] The compounds of the above examples were administered subcutaneously as isotonic solutions or aqueous solutions buffered to a pH of 7.4.

The mark [1] stands for this setting: inoculation (a): LD50 of 10-100.
Where [2] appears, read: inoculation (b): LD50 of 100-1000.

In the case of `CCC(=O)O[C@H]1[C@H](O[C@@H]2[C@@H](C)[C@H](O[C@H]3C[C@@](C)(OC)[C@@H](O)[C@H](C)O3)[C@@H](C)C(=O)O[C@H](CC)[C@@](C)(O)[C@H](O)[C@@H](C)C(=O)[C@H](C)C[C@@]2(C)O)O[C@H](C)C[C@@H]1[N+](C)(C)COC(=O)C(C)(C)C` [Example 1, 2'-propionyl-N-pivalyloxymethylerythromycin A iodide], the ED50 under setting [1] was 88 mg/kg.

As to `CCOC(=O)CCC(=O)O[C@H]1[C@H](O[C@@H]2[C@@H](C)[C@H](O[C@H]3C[C@@](C)(OC)[C@@H](O)[C@H](C)O3)[C@@H](C)C(=O)O[C@H](CC)[C@@](C)(O)[C@H](O)[C@@H](C)C(=O)[C@H](C)C[C@@]2(C)O)O[C@H](C)C[C@@H]1[N+](C)(C)COC(=O)C(C)(C)C` [Example 2, 2'-ethylsuccinyl-N-pivalyloxymethylerythromycin A iodide], the ED50 under setting [2] was found to be 143 mg/kg.

On to `CCOC(=O)CCC(=O)O[C@H]1[C@H](O[C@@H]2[C@@H](C)[C@H](O[C@H]3C[C@@](C)(OC)[C@@H](O)[C@H](C)O3)[C@@H](C)C(=O)O[C@H](CC)[C@@](C)(O)[C@H](O)[C@@H](C)C(=O)[C@H](C)C[C@@]2(C)O)O[C@H](C)C[C@@H]1[N+](C)(C)COC(=O)C(C)(C)C` [Example 3, 2'-ethylsuccinyl-N-pivalyloxymethyl erythromycin A chloride], for which the ED50 under setting [1] worked out at 58 mg/kg.

As for `CCC(=O)O[C@H]1[C@H](O[C@@H]2[C@@H](C)[C@H](O[C@H]3C[C@@](C)(OC)[C@@H](O)[C@H](C)O3)[C@@H](C)C(=O)O[C@H](CC)[C@@](C)(O)[C@H](O)[C@@H](C)C(=O)[C@H](C)C[C@@]2(C)O)O[C@H](C)C[C@@H]1[N+](C)(C)COC(=O)c1ccccc1` [Example 4, 2'-propionyl-N-benzoyloxymethyl erythromycin A chloride], the ED50 under setting [2] is 40 mg/kg.

Turning to `CCOC(=O)CCC(=O)O[C@H]1[C@H](O[C@@H]2[C@@H](C)[C@H](O[C@H]3C[C@@](C)(OC)[C@@H](O)[C@H](C)O3)[C@@H](C)C(=O)O[C@H](CC)[C@@](C)(O)[C@H](O)[C@@H](C)C(=O)[C@H](C)C[C@@]2(C)O)O[C@H](C)C[C@@H]1[N+](C)(C)COC(=O)c1ccccc1` [Example 5, 2'-ethylsuccinyl-N-benzoyloxymethyl erythromycin A iodide], the ED50 (LD 50 column prints 100) was 52 mg/kg.

Turning to `CCOC(=O)CCC(=O)O[C@H]1[C@H](O[C@@H]2[C@@H](C)[C@H](O[C@H]3C[C@@](C)(OC)[C@@H](O)[C@H](C)O3)[C@@H](C)C(=O)O[C@H](CC)[C@@](C)(O)[C@H](O)[C@@H](C)C(=O)[C@H](C)C[C@@]2(C)O)O[C@H](C)C[C@@H]1[N+](C)(C)COC(=O)CC` [Example 7, 2'-ethylsuccinyl-N-propionyloxymethyl erythromycin A iodide], the ED50 (LD 50 column prints 100) was 24 mg/kg.

For `CC[C@H]1OC(=O)[C@H](C)[C@@H](O[C@H]2C[C@@](C)(OC)[C@@H](O)[C@H](C)O2)[C@H](C)[C@@H](O[C@@H]2O[C@H](C)C[C@H]([N+](C)(C)COC(=O)C(C)(C)C)[C@H]2OC(=O)CCC(=O)O)[C@](C)(O)C[C@@H](C)C(=O)[C@H](C)[C@@H](O)[C@]1(C)O` [Example 10, 2'-succinyl-N-pivalyloxymethyl erythromycin A chloride], the ED50 under setting [1] worked out at 37 mg/kg.

Turning to `CC[C@H]1OC(=O)[C@H](C)[C@@H](O[C@H]2C[C@@](C)(OC)[C@@H](O)[C@H](C)O2)[C@H](C)[C@@H](O[C@@H]2O[C@H](C)C[C@H]([N+](C)(C)COC(=O)C(C)(C)C)[C@H]2OC(=O)CCCC(=O)O)[C@](C)(O)C[C@@H](C)C(=O)[C@H](C)[C@@H](O)[C@]1(C)O` [Example 12, 2'-glutaryl-N-pivalyloxymethyl erythromycin A chloride], the ED50 under setting [2] worked out at 73 mg/kg.

`CCOC(=O)CCC(=O)O[C@H]1[C@H](O[C@@H]2[C@@H](C)[C@H](O[C@H]3C[C@@](C)(OC)[C@@H](O)[C@H](C)O3)[C@@H](C)C(=O)O[C@H](CC)[C@@](C)(O)[C@H](O)[C@@H](C)C(=O)[C@H](C)C[C@@]2(C)O)O[C@H](C)C[C@@H]1[N+](C)(C)COC(=O)CCCCCC(=O)O` [Example 14, 2'-ethylsuccinyl-N-pimelyloxymethyl erythromycin chloride]: the ED50 under setting [1] was 47 mg/kg.
